Experimental data reported in PMC9794768, “Molecular mechanism of substrate recognition by folate transporter SLC19A1” (Cell Discovery, 2022).
Blank lines part the entries; values can stand above or below the compound they belong to.

Legend:
SLC19A1 [1] = target: T1, SLC19A1 (Homo sapiens, UniProt P41440); experiment: [3H]-MTX uptake competition in HEK293F cells at […]; FSEC-based thermostability in detergent lysate; assay type: cell-based; parameters: GFP-tagged SLC19A1
T1 sequence (P41440 1-591): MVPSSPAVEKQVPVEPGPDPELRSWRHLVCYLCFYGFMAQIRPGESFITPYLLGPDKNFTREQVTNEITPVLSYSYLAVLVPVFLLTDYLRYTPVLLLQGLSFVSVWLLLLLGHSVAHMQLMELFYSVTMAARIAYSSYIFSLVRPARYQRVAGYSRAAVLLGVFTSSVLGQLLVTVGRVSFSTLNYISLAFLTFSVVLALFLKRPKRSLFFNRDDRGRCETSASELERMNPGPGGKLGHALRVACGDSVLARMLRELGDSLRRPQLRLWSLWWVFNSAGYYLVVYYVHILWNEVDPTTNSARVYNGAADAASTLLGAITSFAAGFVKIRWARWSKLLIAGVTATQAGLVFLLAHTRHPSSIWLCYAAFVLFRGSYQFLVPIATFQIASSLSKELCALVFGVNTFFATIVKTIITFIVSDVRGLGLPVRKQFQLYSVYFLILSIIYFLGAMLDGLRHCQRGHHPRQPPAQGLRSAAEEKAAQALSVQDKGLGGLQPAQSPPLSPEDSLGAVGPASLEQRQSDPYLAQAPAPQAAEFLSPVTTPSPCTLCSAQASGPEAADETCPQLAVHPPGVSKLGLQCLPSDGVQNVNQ

SLC19A1 [2] = target: T1, SLC19A1; experiment: FSEC-based thermostability in detergent lysate; [3H]-MTX uptake competition in HEK293F cells at […]; assay type: cell-based; parameters: GFP-tagged SLC19A1
SLC19A1 [3] = target: T1, SLC19A1; experiment: cryo-EM structure at […] Å and MST; also [3H]-MTX uptake inhibition (IC50 […]) and FSEC thermostability; assay type: binding; parameters: full-length SLC19A1 (MST); BRIL-SLC19A1/Fab/Nb (cryo-EM)

SMILES: Cc1ncc(C[n+]2csc(CCOP(=O)(O)O)c2C)c(N)n1 [TMP, Thiamine monophosphate]
[3H]-MTX uptake competition in HEK293F cells at 200 μM; FSEC-based thermostabili (SLC19A1 [1]): TMP effectively competed with [^3H]-MTX in the transporter assay and enhanced the thermostability of SLC19A1

SMILES: Nc1nc(=O)c2nc(CNc3ccc(C(=O)N[C@@H](CCC(=O)O)C(=O)O)cc3)cnc2[nH]1 [folate]
FSEC-based thermostability in detergent lysate; [3H]-MTX uptake competition in H (SLC19A1 [2]): the well-documented substrates 5-MTHF and folate significantly enhanced the thermostability of SLC19A1

Kd (SLC19A1 [3]): 327 ± 76 µM
SMILES: Cc1ncc(C[n+]2csc(CCO[P@](=O)(O)OP(=O)(O)O)c2C)c(N)n1 [TPP, thiamine pyrophosphate]
